The text below walks through data of patent US20030100769A1, “Cyclic amidine compounds” (priority 2000, published 2003).

The structures appear in SMILES notation. Where two headings read alike, the source gives them in different places.

In assay [1] the target is T1, α4β2 subtype of nicotinic acetylcholine receptors (Rattus norvegicus, UniProt P09483+P12390).
T1 construct: examined using rat brain membrane obtained from whole homogenized brain; from tissue; host or cells: rat whole brain membranes (Fischer-344 male rats)
Briefly: Binding assay at α4β2 subtype of nicotinic acetylcholine receptors ([3H]-cytisine, rat brain membrane). The source says: (§1) The methods for evaluating the binding capabilities of the compounds at nicotinic acetylcholine receptors are different by subtypes of receptors. The binding capabilities of the compounds at α4β2 nicotinic acetylcholine receptors are examined using rat brain membrane obtained from whole homogenized brain, and determining the inhibiting rate of the compounds against [^3H]-cytisine binding to said brain membrane. Furthermore, the binding capabilities of the compounds at α1β1γδ nicotinic acetylcholine receptors are examined using homogenized rat muscle, and determining the inhibiting rate of the compounds against [^3H]-α-bungarotoxin binding to said muscle homogenate.
Binding Assays at α4β2 Subtype of Nicotinic Acetylcholine Receptors
(1) Preparation of Rat Brain Membrane Containing α4β2 Subtype of Nicotinic Acetylcholine Receptors
Rats were housed in the breeding cage controlled of the room temperature at 23±1° C., and the humidity of 55±5% for 1 to 4 weeks. Rats (3 to 4 rats per a cage) were housed with lights on for 12 hours daily (from 7:00 to 19:00), and allowed free access to food and water.
Preparation of rat brain membrane containing α4β2 subtype of nicotinic acetylcholine receptors was performed as follow. That is, rat brains were isolated just after sacrificed by decapitation, washed with ice-cooled saline solution and then frozen at −80° C. with liquid nitrogen and stored till using. After thawing the frozen brain, the brain was homogenized in 10 volumes of ice-cooled buffer solution (50 mM of Tris-HCl, 120 mM of NaCl, 5 mM of KCl, 1 mM of MgCl2, 2 mM of CaCl2; pH 7.4; 4° C.) using homogenizer (HG30, Hitachi Kohki Ltd.) for 30 seconds, and the homogenate were centrifuged under 1,000×G for 10 minutes at 4° C. The resulting supernatant was separated and the pellet was homogenized again with half volume of aforementioned prior buffer solution and centrifuged under the same conditions. Combined supernatant was further centrifuged under 40,000×G for 20 minutes at 4° C. The pellet was suspended in buffer solution and used for binding assays at receptors.
(2) Experiments of α4β2 Subtype of Nicotinic Acetylcholine Receptors Binding
Suspensions of membrane pellets containing 400-600 μg of protein were added to test tubes containing test compounds and [^3H]-cytisine (2 nM) in a final volume of 200 μl and incubated for 75 minutes in ice-cooled bath. The samples were isolated by vacuum filtration onto Whatman GF/B filters, which were prerinsed with 0.5% polyethylenimine just prior to sample filtration, using Brandel multi manifold cell harvester. The filters were rapidly washed with buffer solution (3×1 ml). The filters were counted in 3 ml of clearsol I (Nacalai Tesque Inc.).
The analyses of the experimental results were conducted by using the Accufit Competition Program (Beckman Ltd.).

Assay [2] deals with α1β1γδ subtype of nicotinic acetylcholine receptors (Rattus norvegicus, UniProt P18916+P25108+P25109+P25110). The experiment in a line: biochemical. Format: binding. The conditions noted are these: for remaining activity at 100 µM: read-out: control % of [3H]-α-Bgt binding at 100 μM of test compound; for remaining activity at 1000 µM: read-out: control % of [3H]-α-Bgt binding at 1,000 μM of test compound.
Text: as §1
Binding Assays at α1β1γδ Subtype of Nicotinic Acetylcholine Receptors
The affinity of the compounds of the present invention to α1β1γδ subtype of nicotinic acetylcholine receptors was measured by the following method, which was modified method described by Garcha H. S., Thomas P., Spivak C.
(1) Preparation of Rat Skeletal Muscles Containing α1β1γδ Subtype of Nicotinic Acetylcholine Receptors
The substantially same animals described in the Biological Experiment 1 were used.
The isolation of α1β1γδ subtype of nicotinic acetylcholine receptors was performed as follow. That is, rat posterior skeletal muscles were isolated just after sacrificed by decapitation, washed with ice-cooled saline solution and then frozen at −80° C. with liquid nitrogen and stored till using. After thawing the frozen muscles, tissue was homogenized ([…]) with buffer solution [2.5 mM of sodium phosphate buffer (pH:7.2), 90 mM of NaCl, 2 mM of KCl, 1 mM of EDTA, 2 mM of benzamidine, 0.1 mM of benzethonium chloride, 0.1 mM of PMSF, 0.01% of sodium azide] in Waring blender (Waring blender 34BL97; WARING PRODUCTS DIVISION DYNAMICS CORPORATION OF AMERICA) for 60 seconds. The homogenate were centrifuged under 20,000×G for 60 minutes at 4° C. The supernatant was separated and the resulting pellet was added to the same buffer (1.5 ml/g wet weight), and homogenized under the same conditions. Triton X100 (2% w/v) was added and the mixture was stirred for 3 hours at 4° C. The centrifugation at 100,000×G for 60 minutes at 4° C. yielded the rat muscle extract as supernatant. This was stored at 4° C. for up to 4 weeks, and used for binding assays at receptors.
(2) Experiments of α1β1γδ Subtype of Nicotinic Acetylcholine Receptors Binding
Receptors binding experiments were performed as follow. That is, the extract of rat muscle containing 600-900 μg of protein was added to test tubes containing test compounds and incubated for 15 minutes at 37° C. Then, to this mixture was added 1 nM of [^3H]-α-bungarotoxin (α-Bgt) and further incubated for 2 hours. The samples were isolated by vacuum filtration onto Whatman GF/B filters, which were prerinsed with 0.5% polyethylenimine just prior to sample filtration, using Brandel multi manifold cell harvester. The filters were rapidly rinsed with washing solution (10 mM of KH2PO4, 150 mM of NaCl, pH 7.2, room temperature) (5×1 ml). The filters were counted in 3 ml of clearsol I (Nacalai Tesque Inc.). The determination of nonspecific binding was incubated in the presence of 1 μM α-Bgt. […] In the receptor binding experiments, said buffer solution was added for adjusting the final concentration of BSA to be 0.05%.
The analyses of the experimental results were conducted by the same way as described in the Biological Experiment 1.

[3] abbreviates: rat brain membrane, [3H]-cytisine 2 nM, read-out: Affinities for receptors Ki α4β2.

Sequence of α1β1γδ subtype of nicotinic acetylcholine receptors (P25109 24-501): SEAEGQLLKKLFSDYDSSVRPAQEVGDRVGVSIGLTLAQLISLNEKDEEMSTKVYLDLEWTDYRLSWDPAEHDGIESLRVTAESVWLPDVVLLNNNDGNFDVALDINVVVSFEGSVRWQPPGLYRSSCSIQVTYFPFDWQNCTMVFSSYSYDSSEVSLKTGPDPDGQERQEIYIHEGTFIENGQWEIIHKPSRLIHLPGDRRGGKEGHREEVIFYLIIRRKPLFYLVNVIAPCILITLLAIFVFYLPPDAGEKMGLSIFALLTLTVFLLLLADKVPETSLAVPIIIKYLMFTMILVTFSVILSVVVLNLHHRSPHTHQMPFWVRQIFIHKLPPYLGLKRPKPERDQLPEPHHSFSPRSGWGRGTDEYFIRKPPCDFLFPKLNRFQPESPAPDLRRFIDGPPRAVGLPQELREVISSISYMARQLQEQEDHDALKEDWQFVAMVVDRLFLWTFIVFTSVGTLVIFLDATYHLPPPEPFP
Sequence of α1β1γδ subtype of nicotinic acetylcholine receptors (P25110 22-517): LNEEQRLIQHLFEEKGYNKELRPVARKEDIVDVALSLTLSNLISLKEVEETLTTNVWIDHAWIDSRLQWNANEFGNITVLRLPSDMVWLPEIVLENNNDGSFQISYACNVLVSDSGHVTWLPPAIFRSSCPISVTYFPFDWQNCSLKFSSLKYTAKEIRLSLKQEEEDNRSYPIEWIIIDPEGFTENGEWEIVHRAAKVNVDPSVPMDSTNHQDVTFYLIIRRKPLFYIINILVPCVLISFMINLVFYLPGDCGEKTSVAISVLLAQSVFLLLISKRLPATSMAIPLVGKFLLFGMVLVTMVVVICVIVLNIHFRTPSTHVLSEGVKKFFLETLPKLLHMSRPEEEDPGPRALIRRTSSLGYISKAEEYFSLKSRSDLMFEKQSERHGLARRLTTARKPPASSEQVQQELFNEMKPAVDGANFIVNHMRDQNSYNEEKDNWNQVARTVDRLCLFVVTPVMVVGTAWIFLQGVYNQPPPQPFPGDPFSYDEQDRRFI
Sequence of α1β1γδ subtype of nicotinic acetylcholine receptors (P25108 21-457): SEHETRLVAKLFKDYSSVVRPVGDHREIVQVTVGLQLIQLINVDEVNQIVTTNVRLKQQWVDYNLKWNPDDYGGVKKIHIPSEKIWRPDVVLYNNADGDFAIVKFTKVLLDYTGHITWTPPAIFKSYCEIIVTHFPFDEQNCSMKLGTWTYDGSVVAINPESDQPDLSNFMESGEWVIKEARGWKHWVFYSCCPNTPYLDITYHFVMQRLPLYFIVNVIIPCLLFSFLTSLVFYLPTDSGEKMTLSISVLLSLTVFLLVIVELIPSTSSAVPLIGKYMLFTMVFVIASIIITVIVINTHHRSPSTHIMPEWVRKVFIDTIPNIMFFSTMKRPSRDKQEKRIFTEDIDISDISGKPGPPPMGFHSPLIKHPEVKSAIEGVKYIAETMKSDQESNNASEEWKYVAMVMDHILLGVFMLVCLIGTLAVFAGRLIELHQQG
T1 sequence (P09483 31-630): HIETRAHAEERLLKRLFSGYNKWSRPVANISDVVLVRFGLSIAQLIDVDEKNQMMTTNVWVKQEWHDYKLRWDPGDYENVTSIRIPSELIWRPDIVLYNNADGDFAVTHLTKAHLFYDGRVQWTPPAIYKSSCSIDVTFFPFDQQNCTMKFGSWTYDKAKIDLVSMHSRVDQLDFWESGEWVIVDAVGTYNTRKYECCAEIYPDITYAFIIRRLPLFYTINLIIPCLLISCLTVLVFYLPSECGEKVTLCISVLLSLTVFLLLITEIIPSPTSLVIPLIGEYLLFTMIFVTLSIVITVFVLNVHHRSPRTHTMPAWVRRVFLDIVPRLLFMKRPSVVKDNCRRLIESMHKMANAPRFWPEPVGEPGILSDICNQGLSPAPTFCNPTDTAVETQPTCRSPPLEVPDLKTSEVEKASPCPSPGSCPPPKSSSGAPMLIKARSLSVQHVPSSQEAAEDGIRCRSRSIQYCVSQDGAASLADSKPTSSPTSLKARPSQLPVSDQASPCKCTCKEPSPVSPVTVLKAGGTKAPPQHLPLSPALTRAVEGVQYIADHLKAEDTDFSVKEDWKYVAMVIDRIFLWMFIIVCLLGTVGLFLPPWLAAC
T1 sequence (P12390 25-500): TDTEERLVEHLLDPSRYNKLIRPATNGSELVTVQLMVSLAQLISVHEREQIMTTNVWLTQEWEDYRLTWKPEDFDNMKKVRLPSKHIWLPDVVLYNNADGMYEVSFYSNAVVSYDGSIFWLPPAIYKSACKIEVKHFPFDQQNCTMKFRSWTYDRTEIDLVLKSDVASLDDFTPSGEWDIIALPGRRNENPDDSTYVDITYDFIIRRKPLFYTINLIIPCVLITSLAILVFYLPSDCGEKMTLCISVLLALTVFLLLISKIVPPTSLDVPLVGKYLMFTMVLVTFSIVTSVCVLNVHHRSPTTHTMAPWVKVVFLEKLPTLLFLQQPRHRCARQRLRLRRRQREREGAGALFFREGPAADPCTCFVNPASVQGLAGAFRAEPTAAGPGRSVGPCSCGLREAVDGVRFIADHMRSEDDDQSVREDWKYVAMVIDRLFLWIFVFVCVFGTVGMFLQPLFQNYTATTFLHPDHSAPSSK

`CN1CCCN=C1c1ccc(Cl)nc1` [Compound 4, 2-(6-chloro-3-pyridyl)-1-methyl-1,4,5,6-tetrahydropyrimidine] showed a Ki in assay [1] of 0.067 µM. In assay [2], the remaining activity at 100 µM came out at 46% and the remaining activity at 1000 µM worked out at 16%.
For `Clc1ccc(CC2=NCCN2)cn1` [Compound 7, 2-(6-chloro-3-pyridyl)methyl-2-imidazoline], in assay [1], the inhibition constant Ki is 0.086 µM. In addition, in assay [2], the remaining activity at 100 µM was found to be 80% and the remaining activity at 1000 µM is 51%.
`Clc1ccc(CC2=NCCCN2)cn1` [Compound 8, 2-(6-chloro-3-pyridyl)methyl-1,4,5,6-tetrahydropyrimidine]: the Ki came to 0.029 µM in assay [1] and 395 µM in assay [2].
In the case of `CN1CCN=C1Cc1ccc(Cl)nc1` [Compound 9, 2-(6-chloro-3-pyridyl)methyl-1-methyl-2-imidazoline], the Ki in assay [1] was found to be 0.0077 µM. In addition, in assay [2], the remaining activity at 100 µM is 43% and the remaining activity at 1000 µM turned out to be 16%.
For `CN1CCCN=C1Cc1ccc(Cl)nc1` [Compound 10, 2-(6-chloro-3-pyridyl)methyl-1-methyl-1,4,5,6-tetrahydropyrimidine], in that order: 0.001 µM, 40% and 17%.
For `CC1=NCCN1Cc1ccc(Cl)nc1` [Compound 11, 1-(6-chloro-3-pyridyl)methyl-2-methyl-2-imidazoline], in that order: 0.115 µM, 74% and 53%.
For `CC1(C)CN(Cc2ccc(Cl)nc2)C=N1` [Compound 12, 1-(6-chloro-3-pyridyl)methyl-4,4-dimethyl-2-imidazoline], the Ki in assay [1] came to 0.268 µM. Besides, in assay [2], the remaining activity at 100 µM was 79% and the remaining activity at 1000 µM is 42%.
With `C1CN=C(CC2CCOC2)NC1` (stereo not drawn) [Compound 15, 2-(tetrahydrofuran-3-yl)methyl-1,4,5,6-tetrahydropyrimidine], the Ki in assay [1] (setting [3]) was 0.95 µM.
In the case of `Brc1cncc(CC2=NCCCN2)c1` [Compound 16, 2-(5-bromo-3-pyridyl)methyl-1,4,5,6-tetrahydropyrimidine], in assay [1], the Ki was 0.392 µM. Besides, in assay [2], the remaining activity at 100 µM turned out to be 63% and the remaining activity at 1000 µM was found to be 30%.
For `c1cncc(CC2=NCCCN2)c1` [Compound 18, 2-(3-pyridyl)methyl-1,4,5,6-tetrahydropyrimidine] the same measures were 0.086 µM, 62% and 18%.
With `c1cncc(CC2=NCCN2)c1` [Compound 19, 2-(3-pyridyl)methyl-2-imidazoline], in assay [2], the remaining activity at 100 µM is 69% and the remaining activity at 1000 µM amounted to 29%.
As for `c1ccc2ncc(C3=NCCCN3)cc2c1` [Compound 25, 2-(3-quinolyl)-1,4,5,6-tetrahydropyrimidine], the Ki in assay [1] (setting [3]) amounted to 0.338 µM. Also, in assay [2], the remaining activity at 100 µM worked out at 41% and the remaining activity at 1000 µM came to 7%.
With `CC1=NCC(c2cccnc2)N1` (stereo not drawn) [Compound 32, 2-methyl-5-(3-pyridyl)-2-imidazoline], in assay [1] (setting [3]), the Ki is 0.58 µM. Besides, in assay [2], the remaining activity at 100 µM was 69% and the remaining activity at 1000 µM was found to be 35%.
Regarding `C1=NCC(c2cccnc2)N1` (stereo not drawn) [Compound 33, 5-(3-pyridyl)-2-imidazoline], in assay [1], affinity was put at a Ki of 0.365 µM.
With `Clc1cc(CC2=NCCCN2)cnc1Cl` [Compound 36, 2-(5,6-dichloro-3-pyridyl)methyl-1,4,5,6-tetrahydropyrimidine], in assay [1], the affinity corresponds to a Ki of 0.124 µM. For the same molecule, in assay [2], the remaining activity at 100 µM turned out to be 81% and the remaining activity at 1000 µM is 34%.
For `Cc1ccc(CC2=NCCCN2)cn1` [Compound 43, 2-(6-methyl-3-pyridyl)methyl-1,4,5,6-tetrahydropyrimidine], in that order: 0.167 µM, 71% and 28%.
On to `Fc1ccc(CC2=NCCCN2)cn1` [Compound 48, 2-(6-fluoro-3-pyridyl)methyl-1,4,5,6-tetrahydropyrimidine], for which the figures for the Ki in assay [1] and in assay [2] were 0.082 µM and 257 µM, respectively.
`Clc1cc(CC2=NCCN2)cnc1Cl` [Compound 49, 2-(5,6-dichloro-3-pyridyl)methyl-2-imidazoline]: the results for the Ki in assay [1] (setting [3]) and in assay [2] were 0.211 µM and 773 µM, respectively.
As to `Clc1cc(CN2C=NCCC2)cnc1Cl` [Compound 52, 1-(5,6-dichloro-3-pyridyl)methyl-1,4,5,6-tetrahydropyrimidine], the Ki was 0.0012 µM in assay [1] and 23 µM in assay [2].
For `CN1CCN=C1Cc1cnc(Cl)c(Cl)c1` [Compound 53, 2-(5,6-dichloro-3-pyridyl)methyl-1-methyl-2-imidazoline] the same measures were 0.01 µM and 83 µM.
Regarding `CC1CCNC(Cc2ccc(Cl)nc2)=N1` (stereo not drawn) [Compound 54, 2-(6-chloro-3-pyridyl)methyl-4-methyl-1,4,5,6-tetrahydropyrimidine], the inhibition constant Ki in assay [1] came out at 0.108 µM; in assay [2], 1740 µM.
For `Clc1ncc(CC2=NCCCN2)s1` [Compound 64, 2-(2-chloro-5-thiazolyl)methyl-1,4,5,6-tetrahydropyrimidine] the same measures were 0.0081 µM and 23 µM.
For `Clc1ncc(CC2=NCCN2)s1` [Compound 65, 2-(2-chloro-5-thiazolyl)methyl-2-imidazoline], in that order: 0.053 µM and 524 µM.
For `c1ncc(CC2=NCCCN2)cn1` [Compound 66, 2-(5-pyrimidyl)methyl-1,4,5,6-tetrahydropyrimidine], the Ki was 0.09 µM in assay [1] and 841 µM in assay [2].
As for `Cc1cncc(CC2=NCCCN2)c1` [Compound 68, 2-(5-methyl-3-pyridyl)methyl-1,4,5,6-tetrahydropyrimidine], the values for the Ki in assay [1] and in assay [2] were 0.203 µM and 231 µM, respectively.
